In ChEMBL document CHEMBL5604063, “ASAP - DENV-2 NS2B-NS3 protease fluorescence dose response” (2024):
Where “and” joins values, the source holds several entries; their conditions need not be identical. Identical values can stand only once.

The compounds below were run against Genome polyprotein (dengue virus type 2, UniProt P29990).
Type: functional, Thailand/16681/1984

Chain of Genome polyprotein (P29990 1346-1475 limits assumed): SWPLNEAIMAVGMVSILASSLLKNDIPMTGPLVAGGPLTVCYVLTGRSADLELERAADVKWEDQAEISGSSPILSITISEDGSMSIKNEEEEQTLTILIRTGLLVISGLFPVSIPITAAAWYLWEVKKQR
Chain of Genome polyprotein (P29990 1476-2093 limits assumed): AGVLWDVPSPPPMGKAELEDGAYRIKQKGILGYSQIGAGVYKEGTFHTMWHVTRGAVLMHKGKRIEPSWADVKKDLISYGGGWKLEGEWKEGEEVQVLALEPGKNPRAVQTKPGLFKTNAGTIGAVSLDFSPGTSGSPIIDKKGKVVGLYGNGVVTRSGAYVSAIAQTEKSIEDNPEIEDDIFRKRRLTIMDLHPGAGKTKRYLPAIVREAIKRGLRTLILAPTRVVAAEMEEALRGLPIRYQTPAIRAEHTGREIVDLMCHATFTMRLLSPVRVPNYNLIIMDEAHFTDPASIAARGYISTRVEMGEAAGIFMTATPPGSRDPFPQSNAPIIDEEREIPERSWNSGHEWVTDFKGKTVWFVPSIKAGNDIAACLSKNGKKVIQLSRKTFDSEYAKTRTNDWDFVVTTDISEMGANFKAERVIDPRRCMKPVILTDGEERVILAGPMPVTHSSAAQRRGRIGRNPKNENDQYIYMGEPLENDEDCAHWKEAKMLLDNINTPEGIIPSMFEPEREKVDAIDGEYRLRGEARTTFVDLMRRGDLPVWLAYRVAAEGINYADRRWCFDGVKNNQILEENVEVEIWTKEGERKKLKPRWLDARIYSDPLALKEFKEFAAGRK

Row | SMILES | IC50
1 | CCCCN1Cc2ccc(NS(=O)(=O)c3ccc(Cl)cc3C(=O)O)cc2C1 | > 99.5 µM
2 | O=C(O)c1cc(Cl)ccc1S(=O)(=O)Nc1ccc(N2CCCCCC2)cc1 | 55.2 µM
3 | NCc1ccccc1NC(=O)c1cc(Cl)cc(NC(=O)OCc2ccccc2)c1 | > 99.5 µM
4 | O=C(O)c1cc(Cl)ccc1S(=O)(=O)NC1CCC(N2CCCCC2=O)CC1 (stereo unspecified) | > 99.5 µM
5 | CCc1cc(C(=O)Nc2ccc3c(c2)CNC3)cc2cn[nH]c12 | > 99.5 µM
6 | C[C@]1(C(=O)N[C@H](C(=O)Nc2cccc(CN)c2)c2ccc(OCc3ccccc3)cc2)COc2ccccc2O1 | 52.3 µM
7 | O=C(O)c1cscc1NS(=O)(=O)c1ccc(Oc2ccccc2Cl)cc1 | 34.1 µM
8 | NCc1cccc(NC(=O)[C@@H](NS(=O)(=O)CCc2ccccc2)c2ccc(OCc3ccccc3)cc2)c1 | 72.8 µM
9 | NCc1cccc(NC(=O)[C@H](NC(=O)OCc2ccccc2)C2CCNCC2)c1 | > 99.5 µM
10 | Cc1cc(F)cc(N(C)C(=O)c2ccc(C3(CN)CC3)cc2)c1 | > 99.5 µM
11 | Cn1cc(C(=O)O)c(NS(=O)(=O)c2ccc(Oc3ccccc3Cl)cc2)n1 | > 99.5 µM
12 | CS(=O)(=O)c1ccc(-c2cccc([C@H](NC(=O)OCc3ccccc3)C(=O)Nc3cccc(CN)c3)c2)cn1 | > 99.5 µM
13 | CCn1c(=O)c(N2CCC[C@H]2c2noc(C)n2)nc2ccccc21 | > 99.5 µM
14 | CCn1cc(-c2cccc(CN(C)C)c2)nc(N2CC[C@@H](CO)C2)c1=O | > 99.5 µM
15 | O=C1OCc2ccc(NC(=O)[C@H]3CCNC34CCCC4)cc21 | > 99.5 µM
16 | O=C(NCCO)c1cc(Cl)ccc1NS(=O)(=O)c1ccc(Oc2ccccc2Cl)cc1 | 68 µM
17 | NCCNC(=O)c1cc(Cl)cc(NC(=O)OCc2ccccc2)c1 | > 99.5 µM
18 | NCc1cccc(S(=O)(=O)Nc2cc(Cl)cc(NC(=O)OCc3ccccc3)c2)c1 | > 99.5 µM
19 | CCCC[C@H](NC(C)=O)C(=O)N[C@H](C(=O)NCc1ccc(CN)cc1)c1ccc(OCc2ccccc2)cc1 | 77.3 µM
20 | CN1CCc2ncc(NC(=O)[C@@H](NC(=O)OCc3ccccc3)c3ccc(OCc4ccccc4)cc3)cc2C1 | > 99.5 µM
21 | CN(C(=O)[C@@H](NC(=O)OCc1ccccc1)c1ccc(OCc2ccccc2)cc1)c1cccc(CN)c1 | > 99.5 µM
22 | CCn1nccc1S(=O)(=O)N[C@@H](C(=O)Nc1cccc(CN)c1)c1ccc(OCc2ccccc2)cc1 | > 99.5 µM
23 | NCc1cccc(NC(=O)C[C@@H](NC(=O)OCc2ccccc2)c2ccc(Cl)c(Br)c2)c1 | 12.4 µM and 12.2 µM
24 | NCc1cccc(NC(=O)C[C@H](NC(=O)OCc2ccccc2)c2ccc(Cl)c(Br)c2)c1 | 22.8 µM and 22.9 µM and 12.9 µM and 12.6 µM
25 | Cc1cc(C(=O)Nc2cc(-c3cccnc3)ccn2)nn1CCN | > 99.5 µM
26 | COC(=O)c1cc2scc(Br)c2[nH]1 | > 99.5 µM

Row | SMILES | IC50
27 | CN(C)C(=O)[C@@H](NC(=O)OCc1ccccc1)c1ccc(OCc2ccccc2)cc1 | > 99.5 µM
28 | COc1ccccc1-c1ccc([C@@H](NC(=O)OCc2ccccc2)C(=O)Nc2cccc(CN)c2)cc1 | > 99.5 µM
29 | COc1ncccc1-c1ccc([C@@H](NC(=O)OCc2ccccc2)C(=O)Nc2cccc(CN)c2)cc1 | 23 µM
30 | NCc1cccc(NC(=O)[C@@H](NC(=O)OCc2ccccc2)c2ccc(Br)c(Cl)c2)c1 | 9.1 µM and 8.4 µM
31 | C[C@H]1CC[C@@](Cc2nc3ccccc3[nH]2)(C(=O)Nc2cccc(CN)c2)CC1 | > 99.5 µM
32 | CCn1ccnc(N2CCC[C@H]2C(=O)O)c1=O | > 99.5 µM
33 | N#Cc1ccccc1-c1ccc(S(=O)(=O)Nc2ccc(Cl)cc2C(=O)O)cc1 | 25.1 µM
34 | CCc1ccc(NS(=O)(=O)c2ccc(Oc3ccccc3Cl)cc2)c(C(=O)NC)c1 | > 99.5 µM
35 | O=C(Nc1ccc2c(c1)CNC2)c1cc(Cl)cc(C(F)(F)F)n1 | 22.5 µM
36 | N#Cc1ccc(S(=O)(=O)Nc2ccc(Oc3ccccc3Cl)cc2)c(C(=O)O)c1 | 55.7 µM
37 | Cc1cc(C=O)c(O)c(C(=O)N2CC[C@H](CN(C)C)C2)c1 | > 99.5 µM
38 | CCn1c(=O)c(N2C[C@H]3COC[C@@]3(C)C2)nc2ccccc21 | > 99.5 µM
39 | CCn1cc(-c2cn(C)nc2C(F)(F)F)nc(N2CC[C@@H](CO)C2)c1=O | > 99.5 µM
40 | O=C(O)c1cc(Cl)ccc1NS(=O)(=O)c1ccc(OCc2ncccn2)cc1 | > 99.5 µM
41 | NC1(c2cccc(NC(=O)c3cc(Cl)cc(NC(=O)OCc4ccccc4)c3)c2)CCC1 | > 99.5 µM
42 | COc1ccc(NS(=O)(=O)c2ccc(Cl)cc2C(=O)O)cc1-n1nnnc1C | > 99.5 µM
43 | Cc1cc(C(=O)O)c(NS(=O)(=O)c2ccc(Oc3ccccc3Cl)cc2)cc1F | 8.69 µM
44 | CCn1cc(C(=O)O)nc(N2CC[C@@H](CO)C2)c1=O | > 99.5 µM
45 | CCn1c(=O)c(N2CCC[C@@H]2c2cncn2C)nc2ccccc21 | > 99.5 µM
46 | Cc1ncc(-c2ccc([C@@H](NC(=O)OCc3ccccc3)C(=O)Nc3cccc(CN)c3)cc2)s1 | 29.4 µM
47 | c1ccc([C@H](NCc2c[nH]c3ccccc23)c2cccnc2)cc1 | > 99.5 µM
48 | NCc1cccc(CNC(=O)[C@@H](NC(=O)OCc2ccccc2)c2ccc(OCc3ccccc3)cc2)c1 | 21.7 µM and 12 µM
49 | O=C(N[C@H](C(=O)NCc1ccccc1CO)c1ccc(OCc2ccccc2)cc1)OCc1ccccc1 | > 99.5 µM
50 | CCn1cc(-c2ccnc(N(C)C)c2)nc(N2CC[C@@H](CO)C2)c1=O | > 99.5 µM
51 | Cc1cc(NC(=O)c2cc(C3CC3)n(C)c2C)ccc1N1CCCC1=O | > 99.5 µM
52 | CS(=O)(=O)c1ccc(-c2ccc(S(=O)(=O)Nc3ccc(Cl)cc3C(=O)O)cc2)cc1 | 33.5 µM

Row | SMILES | IC50
53 | Cn1cc(CCOc2ccc([C@@H](NC(=O)OCc3ccccc3)C(=O)Nc3cccc(CN)c3)cc2)nn1 | > 99.5 µM
54 | NCc1cccc(NC(=O)[C@@H](NS(=O)(=O)c2ccccc2F)c2ccc(OCc3ccccc3)cc2)c1 | > 99.5 µM
55 | CC(=O)N[C@@H](C(=O)Nc1cccc(CN)c1)c1ccc(OCc2ccccc2)cc1 | > 99.5 µM
56 | CCN(C(=O)Cn1ccnc(N2CC[C@H](CO)C2)c1=O)C(C)C | > 99.5 µM
57 | Cc1c(CN)c(C(=O)Nc2cc(-c3cccnc3)ccn2)nn1C | > 99.5 µM
58 | Brc1cccc2cn(Cc3ncccn3)nc12 | > 99.5 µM
59 | O=Cc1ccc(N2CCC(C(=O)NCC(=O)c3ccc(O)cc3)CC2)cc1 | 52.9 µM
60 | CCn1ccnc(N2CC[C@@H](Cc3ccncc3)C2)c1=O | > 99.5 µM
61 | CC(C)c1ccc([C@@H](NC(=O)OCc2ccccc2)C(=O)Nc2cccc(CN)c2)cc1 | > 99.5 µM
62 | NCc1ccc(CNC(=O)c2cc(Cl)cc(NC(=O)OCc3ccccc3)c2)cc1 | > 99.5 µM
63 | c1ccc2c(CN3CCN(c4ccncc4)CC3)c[nH]c2c1 | > 99.5 µM
64 | CN1CCN(C2CCN(C(=O)c3cc(C=O)n(C)c3)CC2)CC1 | > 99.5 µM
65 | Cc1n[nH]c2nc(Cl)cc(C(=O)Nc3ccc4c(c3)CNC4)c12 | > 99.5 µM
66 | c1cnc2[nH]cc(C3CCN(Cc4c[nH]c5cnccc45)CC3)c2c1 | > 99.5 µM
67 | CCc1cc(C(=O)Nc2cccc(-c3nnn[nH]3)c2)sc1-c1ccc(Cl)cc1 | 6.08 µM and 5.66 µM
68 | NCc1cccc(NC(=O)[C@@H](NC(=O)OCc2ccccc2)c2cccc(-c3cncnc3)c2)c1 | > 99.5 µM
69 | NCc1cccc(NC(=O)c2cc(OCc3ccccc3)ccc2CNC(=O)OCc2ccccc2)c1 | 24.8 µM
70 | O=C(O)c1cc(Cl)ccc1NS(=O)(=O)c1ccc(OCc2ccccn2)cc1 | > 99.5 µM
71 | NCc1cccc(NC(=O)[C@@H](NC(=O)OCc2ccccc2)c2cccc(F)c2F)c1 | > 99.5 µM
72 | CS(=O)(=O)c1ccc(-c2cccc([C@H](NC(=O)OCc3ccccc3)C(=O)Nc3cccc(CN)c3)c2)cc1 | 40 µM
73 | O=C(Nc1cc(Cl)cc(C(=O)Nc2cnc3n2CCNC3)c1)OCc1ccccc1 | > 99.5 µM
74 | CN1CCc2nc(NC(=O)[C@@H](NC(=O)OCc3ccccc3)c3ccc(OCc4ccccc4)cc3)sc2C1 | > 99.5 µM
75 | N[C@H]1CC[C@H](NC(=O)[C@@H](NC(=O)OCc2ccccc2)c2ccc(OCc3ccccc3)cc2)CC1 | > 99.5 µM
76 | CCc1cc(F)ccc1CC(=O)N1CCCc2cc(CCN)ccc21 | > 99.5 µM
77 | O=S(=O)(Nc1ccc(Cl)cc1)c1ccc(Oc2ccccc2Cl)cc1 | > 99.5 µM
78 | CC(C)(CO)NC(=O)c1cc(Cl)cc(NC(=O)c2ccc(O)nc2)c1 | > 99.5 µM

Row | SMILES | IC50
79 | NCc1cccc(N(C(=O)CNC(=O)OCc2ccccc2)c2ccc(OCc3ccccc3)cc2)c1 | > 99.5 µM
80 | NCc1cccc(NC(=O)[C@@H](NC(=O)OCc2ccccc2)c2ccc(-c3ccc4cn[nH]c4c3)cc2)c1 | 6.06 µM and 6 µM and 5.75 µM
81 | N[C@H]1CCc2cc(-c3ccn(-c4ccccc4)n3)ccc2C1 | > 99.5 µM
82 | Cn1cc(-c2ccc([C@@H](NC(=O)OCc3ccccc3)C(=O)Nc3cccc(CN)c3)cc2)cn1 | > 99.5 µM
83 | N#C[C@H](Nc1ccc2c(c1)CNC2)c1cc(Cl)cc2c1OCC2 | > 99.5 µM
84 | O=C1CC[C@H]2[C@H](CCN2C(=O)c2ccc3c(c2)CNC3)N1 | > 99.5 µM
85 | O=C(Nc1cc(Cl)cc(C(=O)Nc2ncc3n2CCNC3)c1)OCc1ccccc1 | > 99.5 µM
86 | O=C(O)c1cc(Cl)ccc1NS(=O)(=O)c1ccc(-c2cncs2)cc1 | 75.3 µM
87 | NCc1cccc(NC(=O)[C@H](NC(=O)[C@H]2CCOC2)c2ccc(OCc3ccccc3)cc2)c1 | > 99.5 µM
88 | NC(=O)C1(N2CCCCC2)CCN(C(=O)C2CCN(c3ccc(C=O)cc3)CC2)CC1 | > 24.9 µM
89 | O=C(O)c1cc(Cl)ccc1NS(=O)(=O)c1ccc(Nc2ccccc2F)nc1 | 43.2 µM
90 | O=C(O)c1cccc(NC(=O)c2ccc3[nH]ccc3c2)c1 | > 99.5 µM
91 | CCn1cc(-c2ccc([C@@H](NC(=O)OCc3ccccc3)C(=O)Nc3cccc(CN)c3)cc2)cn1 | > 99.5 µM
92 | NCc1ccc(-c2ccc(OCC3CCNCC3)nc2-c2ccc(-c3ccoc3)cc2)cc1 | 67.1 µM
93 | O=C(N[C@@H](C(=O)NC1CNC1)c1ccc(OCc2ccccc2)cc1)OCc1ccccc1 | > 99.5 µM
94 | CCn1cc(-c2cnccc2C)nc(N2CC[C@@H](CO)C2)c1=O | > 99.5 µM
95 | O=C(N[C@@H](C(=O)NCc1ccccn1)c1ccc(OCc2ccccc2)cc1)OCc1ccccc1 | > 99.5 µM
96 | Cc1[nH]c2ccccc2c1CN1CCC(c2c[nH]c3ncccc23)CC1 | > 99.5 µM
97 | C[C@@H](C(=O)Nc1cccc(CN)c1)c1ccc(OCc2ccccc2)cc1 | > 99.5 µM
98 | NCc1cccc(NC(=O)[C@@H](NC(=O)OCc2ccccc2)c2ccc(-c3cccc(F)c3)cc2)c1 | 8.05 µM and 6.08 µM and 6.21 µM
99 | O=C(Nc1cc(Cl)cc(C(=O)Nc2n[nH]c3c2CNC3)c1)OCc1ccccc1 | 27.2 µM
100 | c1ccc2sc(C3CCN(Cc4n[nH]c5c4CCCC5)CC3)nc2c1 | > 99.5 µM
101 | O=C(O)c1cc(Cl)ccc1NS(=O)(=O)c1ccc(OCc2cccnc2)cc1 | > 99.5 µM
